Molecular target: T1, Recombinant human FLT3 (Homo sapiens, UniProt P36888)
T1 construct: His6 (C)
T1 sequence (P36888 27-993): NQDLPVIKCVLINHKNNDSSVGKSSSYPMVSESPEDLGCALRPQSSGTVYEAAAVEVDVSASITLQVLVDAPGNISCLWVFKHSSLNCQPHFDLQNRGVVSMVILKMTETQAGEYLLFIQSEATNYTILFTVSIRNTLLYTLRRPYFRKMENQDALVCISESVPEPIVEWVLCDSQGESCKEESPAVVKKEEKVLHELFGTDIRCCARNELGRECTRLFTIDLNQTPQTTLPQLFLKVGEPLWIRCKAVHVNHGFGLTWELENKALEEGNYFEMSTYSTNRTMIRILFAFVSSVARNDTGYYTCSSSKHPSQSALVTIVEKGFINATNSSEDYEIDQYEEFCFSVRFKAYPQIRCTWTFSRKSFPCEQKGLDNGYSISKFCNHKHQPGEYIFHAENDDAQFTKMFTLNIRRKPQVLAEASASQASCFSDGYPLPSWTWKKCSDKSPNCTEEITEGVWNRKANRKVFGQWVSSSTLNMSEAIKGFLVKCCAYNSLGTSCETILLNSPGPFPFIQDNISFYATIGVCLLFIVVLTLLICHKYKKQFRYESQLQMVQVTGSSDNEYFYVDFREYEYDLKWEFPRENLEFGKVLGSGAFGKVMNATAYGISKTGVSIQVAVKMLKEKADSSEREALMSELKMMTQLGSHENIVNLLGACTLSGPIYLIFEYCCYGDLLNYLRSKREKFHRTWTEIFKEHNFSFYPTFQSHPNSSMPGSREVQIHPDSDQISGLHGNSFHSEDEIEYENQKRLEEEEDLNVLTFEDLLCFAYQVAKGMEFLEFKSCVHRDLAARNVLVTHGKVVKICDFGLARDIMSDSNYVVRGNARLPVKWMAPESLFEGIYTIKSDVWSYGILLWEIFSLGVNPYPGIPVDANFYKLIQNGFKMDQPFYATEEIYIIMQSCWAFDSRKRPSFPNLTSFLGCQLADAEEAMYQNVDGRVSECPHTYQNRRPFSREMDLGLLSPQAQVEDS
Test: Flt3 kinase inhibitory assay (radioisotope filtration binding, 33P-ATP)
Assay type: biochemical
Conditions: read-out: Flt3 inhibition IC50
Experimental: The assay is performed using traditional radioisotope filtration binding.
A base reaction buffer is prepared consisting of 20 mM Hepes (pH 7.5), 10 mM MgCl2, 1 mM EGTA, 0.02% Brij35, 0.02 mg/ml BSA, 0.1 mM […], 2 mM DTT, 1% DMSO. The peptide substrate abltide [[…]] is added to the base reaction buffer to yield a final concentration of 5 μM. Additional cofactors (1.5 mM CaCl2, 16 ug/ml Calmodulin, and 2 mM MnCl2) are added to the buffer/substrate solution. Recombinant human FLT3 (baculovirus expression system using a C-terminal His6-tag) is added to the solution and gently mixed. Test compounds are dissolved in DMSO and added to the buffer/kinase solution to yield a final concentration of 5 μM. […] The reaction is initiated by the addition of ^33P-ATP (specific activity […]) into the reaction mixture to a final concentration of 10 μM. The kinase reaction was incubated for 120 minutes at room temperature. The reactions are spotted onto P81 ion exchange paper (Whatman #3698-915) and the filter papers are extensively washed in 0.75% Phosphoric acid and beta emissions are measured.

IC50 [nM] | Structure (SMILES)
0.11 | c1cc(-c2cn3cc(Nc4cc(CN5CCCC5)ccn4)nc3cn2)ccn1 [Compound 101]
0.25 | c1cc(-c2ccc3nc(Nc4cc(CN5CCCC5)ccn4)cn3n2)ccn1 [Compound 102]
